Results from article PMC7026418, “The kinase polypharmacology landscape of clinical PARP inhibitors” (Scientific Reports, 2020).
Like-named read-outs stand apart in the source and are kept apart here. Blank lines part the entries; values can stand above or below the molecule they belong to.

Tests used:
Experiment in all cases: biochemical
Set-up in all cases: DiscoveRx KINOMEscan active site-directed competition binding; percent of control kinase bound to immobilised ligand
HIPK4 = target: T1, HIPK4 (Homo sapiens, UniProt Q8NE63)
T1 sequence (Q8NE63 1-616): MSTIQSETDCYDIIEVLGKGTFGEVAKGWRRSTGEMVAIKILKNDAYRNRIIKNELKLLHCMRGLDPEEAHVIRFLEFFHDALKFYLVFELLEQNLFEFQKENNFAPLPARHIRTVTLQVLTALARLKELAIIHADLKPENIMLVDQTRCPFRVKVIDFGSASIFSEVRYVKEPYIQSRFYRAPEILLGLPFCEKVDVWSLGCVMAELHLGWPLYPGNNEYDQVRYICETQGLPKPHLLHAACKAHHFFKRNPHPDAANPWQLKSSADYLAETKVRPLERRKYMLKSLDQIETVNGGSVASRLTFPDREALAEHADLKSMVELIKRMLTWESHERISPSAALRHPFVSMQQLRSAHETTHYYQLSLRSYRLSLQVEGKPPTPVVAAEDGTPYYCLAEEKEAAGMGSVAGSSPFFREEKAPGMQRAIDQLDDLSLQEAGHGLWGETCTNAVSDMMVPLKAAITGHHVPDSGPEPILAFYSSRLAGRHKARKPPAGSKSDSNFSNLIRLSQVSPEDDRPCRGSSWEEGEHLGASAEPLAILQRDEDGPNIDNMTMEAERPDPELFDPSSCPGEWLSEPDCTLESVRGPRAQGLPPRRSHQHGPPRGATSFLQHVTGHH

FGFR1 = FGFR1 (Homo sapiens, UniProt P11362)
Chain of FGFR1 (P11362 whole entry): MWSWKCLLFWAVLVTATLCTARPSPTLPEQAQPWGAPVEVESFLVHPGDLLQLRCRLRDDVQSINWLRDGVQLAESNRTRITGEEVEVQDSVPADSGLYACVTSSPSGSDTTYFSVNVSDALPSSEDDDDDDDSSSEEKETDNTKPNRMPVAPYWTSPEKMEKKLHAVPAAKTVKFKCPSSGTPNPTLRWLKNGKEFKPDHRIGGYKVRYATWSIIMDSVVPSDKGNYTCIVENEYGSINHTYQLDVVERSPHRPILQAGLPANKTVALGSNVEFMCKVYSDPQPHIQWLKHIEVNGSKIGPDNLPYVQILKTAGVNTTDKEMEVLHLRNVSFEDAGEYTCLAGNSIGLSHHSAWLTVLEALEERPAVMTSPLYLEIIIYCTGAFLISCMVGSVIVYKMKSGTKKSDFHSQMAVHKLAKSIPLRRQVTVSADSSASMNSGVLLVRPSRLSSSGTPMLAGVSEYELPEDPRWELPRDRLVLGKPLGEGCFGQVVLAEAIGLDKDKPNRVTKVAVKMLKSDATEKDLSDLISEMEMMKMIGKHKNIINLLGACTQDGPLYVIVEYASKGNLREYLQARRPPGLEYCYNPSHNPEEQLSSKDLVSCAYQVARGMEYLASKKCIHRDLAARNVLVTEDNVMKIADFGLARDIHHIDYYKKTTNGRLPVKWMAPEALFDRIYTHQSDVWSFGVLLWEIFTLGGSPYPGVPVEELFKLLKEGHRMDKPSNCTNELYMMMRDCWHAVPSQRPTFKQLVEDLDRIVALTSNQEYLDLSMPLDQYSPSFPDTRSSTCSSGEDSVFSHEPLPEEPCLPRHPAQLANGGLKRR

MST1R = MST1R (Homo sapiens, UniProt Q04912)
Chain of MST1R (Q04912 whole entry): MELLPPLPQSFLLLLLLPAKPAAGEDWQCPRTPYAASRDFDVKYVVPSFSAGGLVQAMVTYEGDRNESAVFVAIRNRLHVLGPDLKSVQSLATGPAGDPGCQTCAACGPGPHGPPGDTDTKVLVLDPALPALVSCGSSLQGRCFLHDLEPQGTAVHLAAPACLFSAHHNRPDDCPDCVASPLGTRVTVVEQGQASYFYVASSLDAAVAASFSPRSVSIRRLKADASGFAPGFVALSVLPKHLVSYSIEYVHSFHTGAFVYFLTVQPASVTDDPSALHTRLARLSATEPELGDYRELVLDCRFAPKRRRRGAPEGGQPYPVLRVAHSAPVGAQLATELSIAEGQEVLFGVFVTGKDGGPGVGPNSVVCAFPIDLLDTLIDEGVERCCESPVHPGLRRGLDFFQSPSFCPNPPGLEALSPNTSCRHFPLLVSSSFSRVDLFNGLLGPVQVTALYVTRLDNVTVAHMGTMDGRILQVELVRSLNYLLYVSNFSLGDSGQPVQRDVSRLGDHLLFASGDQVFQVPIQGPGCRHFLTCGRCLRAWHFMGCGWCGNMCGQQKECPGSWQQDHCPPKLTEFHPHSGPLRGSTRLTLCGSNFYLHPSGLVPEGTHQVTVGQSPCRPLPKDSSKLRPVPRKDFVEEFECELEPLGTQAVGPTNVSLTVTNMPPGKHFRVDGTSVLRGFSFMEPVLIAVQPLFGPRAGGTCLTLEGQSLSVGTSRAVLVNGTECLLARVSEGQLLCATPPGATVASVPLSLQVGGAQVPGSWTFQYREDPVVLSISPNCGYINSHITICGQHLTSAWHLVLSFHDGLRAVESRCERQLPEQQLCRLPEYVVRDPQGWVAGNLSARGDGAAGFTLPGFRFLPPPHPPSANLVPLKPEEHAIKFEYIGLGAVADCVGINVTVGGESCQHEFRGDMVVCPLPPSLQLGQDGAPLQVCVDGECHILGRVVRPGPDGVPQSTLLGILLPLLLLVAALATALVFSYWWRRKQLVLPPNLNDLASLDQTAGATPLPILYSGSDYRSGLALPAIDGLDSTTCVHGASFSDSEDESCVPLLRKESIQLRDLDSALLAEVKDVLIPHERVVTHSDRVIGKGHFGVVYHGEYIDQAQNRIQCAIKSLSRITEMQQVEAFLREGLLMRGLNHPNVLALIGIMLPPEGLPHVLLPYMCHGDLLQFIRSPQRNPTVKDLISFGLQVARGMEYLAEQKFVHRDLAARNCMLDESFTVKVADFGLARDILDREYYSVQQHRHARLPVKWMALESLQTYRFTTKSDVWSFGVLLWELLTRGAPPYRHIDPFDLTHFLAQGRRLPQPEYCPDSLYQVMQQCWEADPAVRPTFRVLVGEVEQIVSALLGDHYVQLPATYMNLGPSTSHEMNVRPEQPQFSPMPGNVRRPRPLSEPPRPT

FRK = FRK (Homo sapiens, UniProt P42685)
Chain of FRK (P42685 whole entry): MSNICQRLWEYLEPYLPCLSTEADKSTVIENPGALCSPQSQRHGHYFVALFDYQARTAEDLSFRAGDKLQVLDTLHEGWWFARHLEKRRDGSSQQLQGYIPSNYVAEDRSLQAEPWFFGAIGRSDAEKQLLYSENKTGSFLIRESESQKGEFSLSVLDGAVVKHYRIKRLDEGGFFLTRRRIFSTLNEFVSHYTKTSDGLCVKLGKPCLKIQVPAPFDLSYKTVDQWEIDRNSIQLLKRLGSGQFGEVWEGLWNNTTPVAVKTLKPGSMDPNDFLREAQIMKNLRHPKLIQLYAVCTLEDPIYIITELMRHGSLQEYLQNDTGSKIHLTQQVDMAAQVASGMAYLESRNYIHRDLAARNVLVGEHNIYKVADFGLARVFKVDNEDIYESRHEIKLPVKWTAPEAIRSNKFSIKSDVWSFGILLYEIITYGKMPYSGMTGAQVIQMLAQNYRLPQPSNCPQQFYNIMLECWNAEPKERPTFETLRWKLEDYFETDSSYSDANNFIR

MUSK = target: T2, MUSK (Homo sapiens, UniProt O15146)
T2 sequence (O15146 1-869): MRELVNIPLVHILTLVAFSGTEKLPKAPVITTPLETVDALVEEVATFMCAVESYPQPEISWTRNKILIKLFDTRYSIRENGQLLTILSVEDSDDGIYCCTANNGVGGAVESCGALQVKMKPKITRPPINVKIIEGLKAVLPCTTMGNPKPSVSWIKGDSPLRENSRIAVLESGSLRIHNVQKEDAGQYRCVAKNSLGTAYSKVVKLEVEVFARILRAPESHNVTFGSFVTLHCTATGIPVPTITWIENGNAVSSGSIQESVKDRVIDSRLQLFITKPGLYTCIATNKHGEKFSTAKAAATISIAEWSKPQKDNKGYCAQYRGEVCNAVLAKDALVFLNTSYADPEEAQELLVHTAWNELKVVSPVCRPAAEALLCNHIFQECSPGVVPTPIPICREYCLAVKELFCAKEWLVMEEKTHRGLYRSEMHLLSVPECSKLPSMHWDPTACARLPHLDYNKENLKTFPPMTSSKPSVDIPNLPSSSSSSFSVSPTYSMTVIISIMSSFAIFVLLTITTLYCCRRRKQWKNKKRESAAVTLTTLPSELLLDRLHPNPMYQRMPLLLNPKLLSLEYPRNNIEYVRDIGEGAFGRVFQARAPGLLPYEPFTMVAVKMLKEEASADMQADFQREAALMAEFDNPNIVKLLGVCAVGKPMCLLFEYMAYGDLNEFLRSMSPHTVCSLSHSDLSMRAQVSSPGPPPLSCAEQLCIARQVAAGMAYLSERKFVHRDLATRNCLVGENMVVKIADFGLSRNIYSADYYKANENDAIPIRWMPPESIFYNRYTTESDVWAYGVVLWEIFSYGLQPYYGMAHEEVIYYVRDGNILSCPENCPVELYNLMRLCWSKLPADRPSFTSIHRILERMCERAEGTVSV

PRKCE = target: T3, PRKCE (Homo sapiens, UniProt Q02156)
T3 sequence (Q02156 1-737): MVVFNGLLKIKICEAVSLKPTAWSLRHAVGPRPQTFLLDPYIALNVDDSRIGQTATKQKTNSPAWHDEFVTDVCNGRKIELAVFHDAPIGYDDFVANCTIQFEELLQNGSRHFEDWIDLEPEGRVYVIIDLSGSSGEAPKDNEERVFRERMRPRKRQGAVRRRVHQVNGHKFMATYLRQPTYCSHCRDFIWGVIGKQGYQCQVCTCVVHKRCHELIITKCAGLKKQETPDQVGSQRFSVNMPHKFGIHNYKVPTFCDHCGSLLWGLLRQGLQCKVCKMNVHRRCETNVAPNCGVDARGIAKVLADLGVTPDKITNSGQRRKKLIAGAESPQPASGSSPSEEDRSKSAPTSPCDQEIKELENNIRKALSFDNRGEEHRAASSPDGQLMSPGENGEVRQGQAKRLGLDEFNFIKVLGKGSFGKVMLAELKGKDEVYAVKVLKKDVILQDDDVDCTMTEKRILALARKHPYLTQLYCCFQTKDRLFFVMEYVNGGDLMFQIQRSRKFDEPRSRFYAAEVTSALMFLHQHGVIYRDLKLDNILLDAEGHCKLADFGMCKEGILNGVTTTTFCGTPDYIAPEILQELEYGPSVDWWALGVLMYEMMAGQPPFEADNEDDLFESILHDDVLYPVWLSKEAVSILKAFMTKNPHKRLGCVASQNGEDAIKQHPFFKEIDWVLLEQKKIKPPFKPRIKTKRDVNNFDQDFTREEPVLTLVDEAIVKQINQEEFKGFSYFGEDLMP

PRKR = target: T4, PRKR (Homo sapiens, UniProt P19525)
T4 construct: gene EIF2AK2
T4 sequence (P19525 whole entry): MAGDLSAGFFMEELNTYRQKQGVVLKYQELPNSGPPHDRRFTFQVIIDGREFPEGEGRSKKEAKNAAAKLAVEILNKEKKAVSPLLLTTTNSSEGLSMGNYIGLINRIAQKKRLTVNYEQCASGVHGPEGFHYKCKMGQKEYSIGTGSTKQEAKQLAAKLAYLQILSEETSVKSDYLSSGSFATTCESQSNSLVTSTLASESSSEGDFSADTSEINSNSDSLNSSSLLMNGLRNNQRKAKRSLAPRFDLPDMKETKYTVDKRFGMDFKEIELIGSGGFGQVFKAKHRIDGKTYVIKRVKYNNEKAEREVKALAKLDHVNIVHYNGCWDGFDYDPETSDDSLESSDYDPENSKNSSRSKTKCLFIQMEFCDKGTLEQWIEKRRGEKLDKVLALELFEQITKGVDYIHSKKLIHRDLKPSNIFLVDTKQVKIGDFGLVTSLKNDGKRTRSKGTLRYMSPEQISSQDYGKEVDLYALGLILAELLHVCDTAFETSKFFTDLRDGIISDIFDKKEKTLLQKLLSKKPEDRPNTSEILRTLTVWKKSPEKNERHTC

ERBB2 = ERBB2 (Homo sapiens, UniProt P04626)
Chain of ERBB2 (P04626 whole entry): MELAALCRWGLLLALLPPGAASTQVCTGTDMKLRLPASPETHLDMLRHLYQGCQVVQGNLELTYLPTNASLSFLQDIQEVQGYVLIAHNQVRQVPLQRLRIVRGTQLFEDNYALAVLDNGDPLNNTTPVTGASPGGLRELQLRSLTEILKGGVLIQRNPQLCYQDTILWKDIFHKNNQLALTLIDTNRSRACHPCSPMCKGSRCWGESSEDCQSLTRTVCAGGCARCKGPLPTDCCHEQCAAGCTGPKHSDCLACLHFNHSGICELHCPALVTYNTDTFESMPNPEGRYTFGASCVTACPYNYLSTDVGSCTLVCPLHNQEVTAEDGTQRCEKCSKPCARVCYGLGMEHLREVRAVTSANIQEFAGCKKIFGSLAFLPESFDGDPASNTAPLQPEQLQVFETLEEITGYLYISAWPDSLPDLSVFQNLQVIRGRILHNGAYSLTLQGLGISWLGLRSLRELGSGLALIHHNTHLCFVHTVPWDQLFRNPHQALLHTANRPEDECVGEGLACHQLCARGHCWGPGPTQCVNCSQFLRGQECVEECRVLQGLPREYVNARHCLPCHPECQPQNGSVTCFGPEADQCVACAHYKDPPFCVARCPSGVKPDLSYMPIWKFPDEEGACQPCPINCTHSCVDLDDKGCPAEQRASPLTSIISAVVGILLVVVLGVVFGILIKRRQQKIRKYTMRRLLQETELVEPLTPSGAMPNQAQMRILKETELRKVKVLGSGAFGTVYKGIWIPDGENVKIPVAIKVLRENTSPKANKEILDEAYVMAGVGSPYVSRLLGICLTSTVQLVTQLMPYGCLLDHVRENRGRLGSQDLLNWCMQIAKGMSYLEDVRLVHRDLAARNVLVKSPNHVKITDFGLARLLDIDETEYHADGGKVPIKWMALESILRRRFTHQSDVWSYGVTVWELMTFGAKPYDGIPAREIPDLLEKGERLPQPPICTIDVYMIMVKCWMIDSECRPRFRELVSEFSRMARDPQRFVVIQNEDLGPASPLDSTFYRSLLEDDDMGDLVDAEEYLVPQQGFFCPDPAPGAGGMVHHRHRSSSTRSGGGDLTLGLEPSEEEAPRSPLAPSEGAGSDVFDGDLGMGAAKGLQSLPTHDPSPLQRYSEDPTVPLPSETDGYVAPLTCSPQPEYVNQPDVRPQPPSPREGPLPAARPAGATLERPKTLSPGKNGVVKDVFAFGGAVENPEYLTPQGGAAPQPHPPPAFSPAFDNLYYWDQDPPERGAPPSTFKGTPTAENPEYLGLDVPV

[1] = read-out: Niraparib (MK-4827) / %Ctrl @ 10000nM
[2] = read-out: Rucaparib / %Ctrl @ 10000nM, binding competition, % of control
[3] = read-out: Olaparib / %Ctrl @ 10000nM
[4] = read-out: Talazoparib (BMN 673) / %Ctrl @ 10000nM

Structure (SMILES): NC(=O)c1cccc2cn(-c3ccc([C@@H]4CCCNC4)cc3)nc12 [Niraparib]
- percent of control binding at 10 µM (HIPK4; [1]): 80%
- percent of control binding at 10 µM (FGFR1; [1]): 88%
- percent of control binding at 10 µM (MST1R; [1]): 88%
- percent of control binding at 10 µM (FRK; [1]): 91%
- percent of control binding at 10 µM (MUSK; [1]): 82%
- percent of control binding at 10 µM (PRKCE; [1]): 100%
- percent of control binding at 10 µM (PRKR; [1]): 91%
- percent of control binding at 10 µM (ERBB2; [1]): 82%

- percent of control binding at 10 µM (HIPK4; [2]): 51%
- percent of control binding at 10 µM (FGFR1; [2]): 91%
- percent of control binding at 10 µM (MST1R; [2]): 91%
- percent of control binding at 10 µM (FRK; [2]): 97%
- percent of control binding at 10 µM (MUSK; [2]): 96%
- percent of control binding at 10 µM (PRKCE; [2]): 74%
- percent of control binding at 10 µM (PRKR; [2]): 76%
- percent of control binding at 10 µM (ERBB2; [2]): 100%
Structure (SMILES): CNCc1ccc(-c2[nH]c3cc(F)cc4c3c2CCNC4=O)cc1 [Rucaparib]

- percent of control binding at 10 µM (HIPK4; [3]): 100%
- percent of control binding at 10 µM (FGFR1; [3]): 100%
- percent of control binding at 10 µM (MST1R; [3]): 84%
- percent of control binding at 10 µM (FRK; [3]): 90%
- percent of control binding at 10 µM (MUSK; [3]): 100%
- percent of control binding at 10 µM (PRKCE; [3]): 93%
- percent of control binding at 10 µM (PRKR; [3]): 94%
- percent of control binding at 10 µM (ERBB2; [3]): 100%
Structure (SMILES): O=C(c1cc(Cc2n[nH]c(=O)c3ccccc23)ccc1F)N1CCN(C(=O)C2CC2)CC1 [Olaparib]

- percent of control binding at 10 µM (HIPK4; [4]): 100%
- percent of control binding at 10 µM (FGFR1; [4]): 94%
- percent of control binding at 10 µM (MST1R; [4]): 99%
- percent of control binding at 10 µM (FRK; [4]): 85%
- percent of control binding at 10 µM (MUSK; [4]): 100%
- percent of control binding at 10 µM (PRKCE; [4]): 93%
- percent of control binding at 10 µM (PRKR; [4]): 78%
- percent of control binding at 10 µM (ERBB2; [4]): 98%
Structure (SMILES): Cn1ncnc1[C@H]1c2n[nH]c(=O)c3cc(F)cc(c23)N[C@@H]1c1ccc(F)cc1 [Talazoparib]
